Measurements as given in article PMC8126888 (RSC Medicinal Chemistry, 2020).
Read-outs that look alike come from different tables or passages of the source.

Tests used:
in vitro = conditions: human
[1] = system: Leishmania infantum MHOM/MA(BE)/67/ITMAP263 intracellular amastigotes; assay: microbe, parasite or virus in culture; conditions: Macrophage, in Mus musculus
[2] = system: Trypanosoma cruzi, Tulahuen CL2, beta-galactosidase strain; assay: microbe, parasite or virus in culture
[3] = system: primary peritoneal mouse macrophages (PMM); assay: cells; conditions: Macrophage
physchem = conditions: HPLC, Ascentis Express RP Amide column
[4] = read-out: L. Inf. pIC50, from L. infantum intracellular amastigote IC50 (converted)
[5] = read-out: L. infantum MHOM/MA(BE)/67/ITMAP263 intracellular amastigotes IC50, intracellular amastigotes
[6] = MRC5, read-out: T. cruzi Tulahuen C4 (LacZ) IC50
[7] = read-out: L. Inf. pIC50 (converted)
[8] = read-out: L. infantum MHOM/MA(BE)/67/ITMAP263 intracellular amastigotes IC50
[9] = read-out: L. infantum MHOM/MA(BE)/67/ITMAP263 intracellular amastigotes IC50 (uM), intracellular amastigotes
[10] = MRC5, read-out: T. cruzi Tulahuen C4 (LacZ) IC50 (uM)
[11] = read-out: L. inf. pIC50, intracellular amastigotes in PMM (converted), geometric mean of a minimum of two experiments ± standard error
[12] = read-out: PMM pIC50 (converted)

COCCNc1ccc(S(=O)(=O)N(CCOC)Cc2ccccc2)cc1 [DNDI0003366102]
CC50 at 3 days (in vitro): 38.1 µM | IC50 [1, 4]: 38.9 µM | IC50 [1, 5]: 38.6 µM | IC50 [2, 6]: 34.8 µM | IC50 ([3]; read-out: PMM IC50): > 64 µM

O=C(COc1ccc(Cl)cc1S(=O)(=O)NCc1ccccc1)N1CCOCC1 [DNDI0003363401]
CC50 at 3 days (in vitro): > 55.4 µM | IC50 [1, 7]: > 55.4 µM | IC50 [1, 8]: > 55.4 µM | IC50 [2, 6]: > 55.4 µM | IC50 ([3]; read-out: PMM IC50): > 55.4 µM

CC(=O)Nc1ccc(Cl)c(C(=O)NC(Cn2ccnc2)c2ccccc2)c1 (stereo not shown) [DNDI0003363391]
CC50 at 3 days (in vitro): > 55.4 µM | IC50 [1, 7]: > 55.4 µM | IC50 [1, 8]: > 55.4 µM | IC50 [2, 6]: > 55.4 µM | IC50 ([3]; read-out: PMM IC50): > 55.4 µM

COc1ccc(C)cc1S(=O)(=O)N(CC(=O)NCc1ccc(Cl)cc1)Cc1ccccc1 [DNDI0003363396]
CC50 at 3 days (in vitro): > 55.4 µM | IC50 [1, 7]: 25.7 µM | IC50 [1, 8]: 25.7 µM | IC50 [2, 6]: 6.02 µM | IC50 ([3]; read-out: PMM IC50): > 55.4 µM

COCCN(Cc1ccccc1)S(=O)(=O)c1cc(C(=O)N2CCOCC2)ccc1OC [DNDI0003392126]
CC50 at 3 days (in vitro): > 64 µM | IC50 [1, 4]: 43.7 µM | IC50 [1, 9]: 44 µM | IC50 [2, 10]: > 64 µM | IC50 ([3]; read-out: PMM IC50 (uM)): > 64 µM

O=S(=O)(c1cc(F)ccc1F)N(Cc1ccc(F)cc1)Cc1ccc(F)cc1 [Compound 12]
IC50 [1, 11]: > 64.6 µM | IC50 [3, 12]: > 64.6 µM

COCC1COc2ccc(F)cc2S(=O)(=O)N1Cc1ccccc1 (stereo not shown) [DNDI0003369451]
CC50 at 3 days (in vitro): > 64 µM | IC50 [1, 4]: > 64 µM | IC50 [1, 5]: > 64 µM | IC50 [2, 6]: > 64 µM | IC50 ([3]; read-out: PMM IC50): > 64 µM

COc1ccc(OC)c(S(=O)(=O)N(Cc2ccccc2)C2CCN(C(C)=O)CC2)c1 [DNDI0003366132]
CC50 at 3 days (in vitro): > 64 µM | IC50 [1, 4]: > 64 µM | IC50 [1, 5]: > 64 µM | chromatographic logD (physchem; pH 7.4, eLogD, experimental): 3.1 | IC50 [2, 6]: > 64 µM | IC50 ([3]; read-out: PMM IC50): > 64 µM

CN(C)CCN(Cc1ccccc1)S(=O)(=O)c1ccccc1OC(F)(F)F [DNDI0003367256]
CC50 at 3 days (in vitro): 53.4 µM | IC50 [1, 4]: 8.71 µM | IC50 [1, 5]: 8.64 µM | IC50 [2, 6]: 32 µM | IC50 ([3]; read-out: PMM IC50): 45.2 µM

COc1ccc(OC)c(S(=O)(=O)n2cc(C)nc2-c2ccccc2)c1 [DNDI0003363402]
CC50 at 3 days (in vitro): > 55.4 µM | IC50 [1, 7]: > 55.4 µM | IC50 [1, 8]: > 55.4 µM | IC50 [2, 6]: > 55.4 µM | IC50 ([3]; read-out: PMM IC50): > 55.4 µM

COCCN(Cc1ccccc1)S(=O)(=O)c1cc(C(=O)N2CCNCC2)ccc1OC [DNDI0003392127]
CC50 at 3 days (in vitro): > 64 µM | IC50 [1, 4]: 36.3 µM | IC50 [1, 9]: 35.9 µM | IC50 [2, 10]: 13.4 µM | IC50 ([3]; read-out: PMM IC50 (uM)): > 64 µM

COc1ccc(OC)c(S(=O)(=O)N(Cc2ccc(F)cc2)Cc2ccc(F)cc2)c1 [Compound 32]
IC50 [1, 11]: 0.537 µM | chromatographic logD (physchem; pH 7.4, elog D, HPLC measured log D, pH 7.4): 4.7 | IC50 [3, 12]: > 64.6 µM

O=S1(=O)c2cc(F)ccc2OCCN1Cc1ccccc1 [DNDI0003368292]
CC50 at 3 days (in vitro): > 64 µM | IC50 [1, 4]: > 64 µM | IC50 [1, 5]: > 64 µM | IC50 [2, 6]: 48.9 µM | IC50 ([3]; read-out: PMM IC50): > 64 µM

CC(=O)O[C@H]1C(=O)[C@@]2(C)[C@H]([C@H](OC(=O)c3ccccc3)[C@]3(O)C[C@H](OC(=O)[C@H](O)[C@@H](NC(=O)c4ccccc4)c4ccccc4)C(C)=C1C3(C)C)[C@]1(OC(C)=O)CO[C@@H]1C[C@@H]2O [paclitaxel, reference compound]
CC50 at 3 days (in vitro): < 0.01 µM

COc1ccc(Cl)cc1S(=O)(=O)N(CC(=O)N1CCOCC1)Cc1ccccc1 [SCYX0001379806]
CC50 at 3 days (in vitro): > 32 µM | IC50 [1, 7]: > 32 µM | IC50 [1, 8]: > 32 µM | IC50 [2, 6]: > 32 µM | IC50 ([3]; read-out: PMM IC50): > 32 µM

COc1ccc(OC)c(S(=O)(=O)N2CCCC2c2ccc(F)cc2)c1 (stereo not shown) [DNDI0003363388]
CC50 at 3 days (in vitro): > 32 µM | IC50 [1, 7]: 9.55 µM | IC50 [1, 8]: 9.59 µM | IC50 [2, 6]: 25.6 µM | IC50 ([3]; read-out: PMM IC50): > 32 µM

COc1ccc(C)cc1S(=O)(=O)N(CC(=O)Nc1ccccc1)Cc1ccccc1 [DNDI0003363395]
CC50 at 3 days (in vitro): > 55.4 µM | IC50 [1, 7]: > 49.4 µM | IC50 [1, 8]: > 49.4 µM | IC50 [2, 6]: 19.8 µM | IC50 ([3]; read-out: PMM IC50): > 55.4 µM

COc1ncc(C#N)cc1S(=O)(=O)N(Cc1ccc(F)cc1)Cc1ccc(F)cc1 [DNDI0003369123]
CC50 at 3 days (in vitro): > 64 µM | IC50 [1, 4]: 7.59 µM | IC50 [1, 5]: 7.6 µM | chromatographic logD (physchem; pH 7.4, eLogD, experimental): 4.5 | IC50 [2, 6]: 8.4 µM | IC50 ([3]; read-out: PMM IC50): > 64 µM

COc1ccc(C)cc1S(=O)(=O)N(CC(=O)N1CCOCC1)Cc1ccccc1 [DNDI0003363393]
CC50 at 3 days (in vitro): > 55.4 µM | IC50 [1, 7]: 19.1 µM | IC50 [1, 8]: 18.9 µM | IC50 [2, 6]: > 55.4 µM | IC50 ([3]; read-out: PMM IC50): > 55.4 µM

O=S(=O)(c1cc(F)ccc1F)N(Cc1ccc(F)cc1)Cc1ccc(F)cc1 [DNDI0003371158]
CC50 at 3 days (in vitro): > 64 µM | IC50 [1, 4]: > 64 µM | IC50 [1, 5]: > 64 µM | IC50 [2, 6]: > 64 µM | IC50 ([3]; read-out: PMM IC50): > 64 µM

COc1ccccc1S(=O)(=O)N(Cc1ccccc1)Cc1ccccc1 [Compound 10]
IC50 [1, 11]: 0.331 µM | IC50 [3, 12]: > 64.6 µM

O=S(=O)(c1cc(F)ccc1F)N(Cc1ccccc1)CC(O)c1ccc(F)cc1 (stereo not shown) [DNDI0003371159]
CC50 at 3 days (in vitro): 18.7 µM | IC50 [1, 4]: 33.1 µM | IC50 [1, 5]: 33.1 µM | IC50 [2, 6]: 7.27 µM | IC50 ([3]; read-out: PMM IC50): > 64 µM

COc1ccc(Cl)cc1S(=O)(=O)N(CC(=O)N1CCCC1)Cc1ccccc1 [DNDI0003363389]
CC50 at 3 days (in vitro): > 32 µM | IC50 [1, 7]: 15.5 µM | IC50 [1, 8]: 15.5 µM | IC50 [2, 6]: > 32 µM | IC50 ([3]; read-out: PMM IC50): > 32 µM

O=C(Cn1ccnc1[N+](=O)[O-])NCc1ccccc1 [Benznidazole, reference compound]
IC50 ([2]; MRC5, […], reference drug, T. cruzi, 7 days): 2 to 5 µM

CC[C@]1(O)C[C@@H]2CN(CCc3c([nH]c4ccccc34)[C@@](C(=O)OC)(c3cc4c(cc3OC)N(C)[C@H]3[C@@](O)(C(=O)OC)[C@H](OC(C)=O)[C@]5(CC)C=CCN6CC[C@]43[C@@H]65)C2)C1 [vinblastine, reference compound]
CC50 at 3 days (in vitro): < 0.01 µM

COc1ccc(Cl)cc1S(=O)(=O)N(CC(=O)N1CCN(C)CC1)Cc1ccccc1 [DNDI0003363387]
CC50 at 3 days (in vitro): > 32 µM | IC50 [1, 7]: > 32 µM | IC50 [1, 8]: > 32 µM | IC50 [2, 6]: > 32 µM | IC50 ([3]; read-out: PMM IC50): > 32 µM

COc1ccc(OC)c(S(=O)(=O)N2CCc3ccccc3C2)c1 [DNDI0003363398]
CC50 at 3 days (in vitro): > 55.4 µM | IC50 [1, 7]: > 55.4 µM | IC50 [1, 8]: > 55.4 µM | IC50 [2, 6]: > 55.4 µM | IC50 ([3]; read-out: PMM IC50): > 55.4 µM

COc1ccc(C)cc1S(=O)(=O)N(CC(=O)O)Cc1ccccc1 [DNDI0003363399]
CC50 at 3 days (in vitro): > 55.4 µM | IC50 [1, 7]: > 55.4 µM | IC50 [1, 8]: > 55.4 µM | IC50 [2, 6]: > 55.4 µM | IC50 ([3]; read-out: PMM IC50): > 55.4 µM

COc1ccc(C)cc1S(=O)(=O)N(CC(N)=O)Cc1ccccc1 [DNDI0003363397]
CC50 at 3 days (in vitro): > 55.4 µM | IC50 [1, 7]: > 55.4 µM | IC50 [1, 8]: > 55.4 µM | IC50 [2, 6]: > 55.4 µM | IC50 ([3]; read-out: PMM IC50): > 55.4 µM

COc1ccc(S(=O)(=O)N(CC(=O)NC2CC2)Cc2ccccc2)cc1C [DNDI0003363400]
CC50 at 3 days (in vitro): > 55.4 µM | IC50 [1, 7]: > 49.4 µM | IC50 [1, 8]: > 49.4 µM | IC50 [2, 6]: > 55.4 µM | IC50 ([3]; read-out: PMM IC50): > 55.4 µM

O=C(NC(Cn1ccnc1)c1ccccc1)c1ccc(-n2cnnn2)cc1 (stereo not shown) [DNDI0003363392]
CC50 at 3 days (in vitro): > 55.4 µM | IC50 [1, 7]: > 49.4 µM | IC50 [1, 8]: > 49.4 µM | IC50 [2, 6]: 9 µM | IC50 ([3]; read-out: PMM IC50): > 55.4 µM

CCN(CC)C(=O)CN(Cc1ccccc1)S(=O)(=O)c1ccc(OC)c(OC)c1 [DNDI0003363394]
CC50 at 3 days (in vitro): > 55.4 µM | IC50 [1, 7]: 32.4 µM | IC50 [1, 8]: 32.1 µM | IC50 [2, 6]: > 55.4 µM | IC50 ([3]; read-out: PMM IC50): > 55.4 µM
